Source: PubChem BioAssay AID330 (DTP/NCI, 2004)
Toxic doses and inconclusive results are not listed. The calls were made as follows: active = survival T/C of 150% or more; inactive = T/C below 125% in these data.

Test system: P388 leukemia ip, CD2F1 mice, survival T/C
Test: NCI In Vivo Anticancer Drug Screen. Data for tumor model P388 Leukemia (intraperitoneal) in CD2F1 (CDF1) mice
Conditions: endpoint: median survival time, higher = longer survival
Summary of the method: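 Mice carrying the transplanted tumor received test compound or vehicle. Survival was recorded in each group, and the value is the treated-group measurement divided by that of the vehicle-treated control group.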

[1] = dose: 50.0 mg/kg/injection, schedule: Q01DX005 (ip), vehicle: Klucel (hydroxypropylcellulose) (HPC)
[2] = dose: 100.0 mg/kg/injection, schedule: Q01DX005 (ip), vehicle: Klucel (hydroxypropylcellulose) (HPC)
[3] = dose: 50.0 mg/kg/injection, schedule: Q01DX009 (ip), vehicle: saline
[4] = dose: 100.0 mg/kg/injection, schedule: Q01DX009 (ip), vehicle: saline
[5] = dose: 200.0 mg/kg/injection, schedule: Q01DX009 (ip), vehicle: saline
[6] = dose: 200.0 mg/kg/injection, schedule: Q01DX005 (ip), vehicle: Klucel (hydroxypropylcellulose) (HPC)
[7] = dose: 50.0 mg/kg/injection, schedule: Q01DX005 (ip), vehicle: saline with Tween-80
[8] = dose: 100.0 mg/kg/injection, schedule: Q01DX005 (ip), vehicle: saline with Tween-80
[9] = dose: 50.0 mg/kg/injection, schedule: Q01DX009 (ip), vehicle: saline with Tween-80
[10] = dose: 100.0 mg/kg/injection, schedule: Q01DX009 (ip), vehicle: saline with Tween-80
[11] = dose: 200.0 mg/kg/injection, schedule: Q01DX009 (ip), vehicle: saline with Tween-80
[12] = dose: 50.0 mg/kg/injection, schedule: Q01DX009 (ip), vehicle: Klucel (hydroxypropylcellulose) (HPC)
[13] = dose: 100.0 mg/kg/injection, schedule: Q01DX009 (ip), vehicle: Klucel (hydroxypropylcellulose) (HPC)
[14] = dose: 200.0 mg/kg/injection, schedule: Q01DX009 (ip), vehicle: Klucel (hydroxypropylcellulose) (HPC)
[15] = dose: 50.0 mg/kg/injection, schedule: Q01DX005 (ip), vehicle: saline
[16] = dose: 100.0 mg/kg/injection, schedule: Q01DX005 (ip), vehicle: saline

Measured: T/C

COc1cc2c(cc1OC)[N+]([O-])=C(c1ccccc1)C2=O
inactive: [1] 94 % of control | [2] 93 % of control

CC(=O)OC1C(=O)C2C(CC=C3CC(O)CC(O)C32C)C2CCC(C(C)C3CC(C)C(C)(C)O3)C12C (centres undefined)
inactive: [3] 97 % of control | dose: 100.0 mg/kg/injection, schedule: Q01DX001 (ip), vehicle: Klucel (hydroxypropylcellulose) (HPC) 100 % of control | [4] 101 % of control | dose: 200.0 mg/kg/injection, schedule: Q01DX001 (ip), vehicle: Klucel (hydroxypropylcellulose) (HPC) 97 % of control | [5] 94 % of control | dose: 400.0 mg/kg/injection, schedule: Q01DX001 (ip), vehicle: Klucel (hydroxypropylcellulose) (HPC) 96 % of control

CCNc1cc2oc(=O)cc(C(F)(F)F)c2cc1C
inactive: [1] 97 % of control | [2] 100 % of control | [6] 99 % of control

COc1cccc2c1C(=N)c1c(O)c3c(c(O)c1C2=O)CC(O)(C(C)=O)CC3OC1CC(N(Cc2ccccc2)Cc2ccccc2)C(O)C(C)O1 (centres undefined)
inactive: dose: 4.69 mg/kg/injection, schedule: Q04DX003 (ip), vehicle: distilled water + Tween-80 101 % of control | dose: 9.38 mg/kg/injection, schedule: Q04DX003 (ip), vehicle: distilled water + Tween-80 102 % of control | dose: 18.75 mg/kg/injection, schedule: Q04DX003 (ip), vehicle: distilled water + Tween-80 100 % of control | dose: 37.5 mg/kg/injection, schedule: Q04DX003 (ip), vehicle: distilled water + Tween-80 96 % of control | dose: 75.0 mg/kg/injection, schedule: Q04DX003 (ip), vehicle: distilled water + Tween-80 101 % of control | dose: 150.0 mg/kg/injection, schedule: Q04DX003 (ip), vehicle: distilled water + Tween-80 108 % of control

Nc1nnc(-c2ccc(Cl)c(Cl)c2)o1
inactive: dose: 100.0 mg/kg/injection, schedule: Q04DX003 (ip), vehicle: Klucel (hydroxypropylcellulose) (HPC) 100 % of control | dose: 200.0 mg/kg/injection, schedule: Q04DX003 (ip), vehicle: Klucel (hydroxypropylcellulose) (HPC) 105 % of control | dose: 400.0 mg/kg/injection, schedule: Q04DX003 (ip), vehicle: Klucel (hydroxypropylcellulose) (HPC) 115 % of control

NC(=S)N/N=C/c1ccccc1
inactive: dose: 12.5 mg/kg/injection, schedule: Q04DX003 (ip), vehicle: Klucel (hydroxypropylcellulose) (HPC) 116 % of control | dose: 25.0 mg/kg/injection, schedule: Q04DX003 (ip), vehicle: Klucel (hydroxypropylcellulose) (HPC) 109 % of control

CC1(C)OC2(C)CCC1C1C2N1C(=O)Nc1ccccc1 (centres undefined)
inactive: [7] 101 % of control | [8] 106 % of control | dose: 200.0 mg/kg/injection, schedule: Q01DX005 (ip), vehicle: saline with Tween-80 101 % of control

CC(C)=CCc1c(C)cc2cc3c(c(O)c2c1O)C(O)=CC(=O)C3(CC=C(C)C)C/C=C(\C)CO (centres undefined)
inactive: dose: 25.0 mg/kg/injection, schedule: Q01DX005 (ip), vehicle: Klucel (hydroxypropylcellulose) (HPC) 103 % of control | [1] 93 % of control | [2] 97 % of control

N/N=C1/C(=O)N(c2ccc(S(N)(=O)=O)cc2)C(=O)C1C(=O)Nc1ccc(S(N)(=O)=O)cc1 (centres undefined)
inactive: dose: 60.0 mg/kg/injection, schedule: Q01DX005 (ip), vehicle: saline with Tween-80 114 % of control | dose: 120.0 mg/kg/injection, schedule: Q01DX005 (ip), vehicle: saline with Tween-80 101 % of control | dose: 240.0 mg/kg/injection, schedule: Q01DX005 (ip), vehicle: saline with Tween-80 106 % of control

COc1ccccc1C(=O)C(CN(C)C)CN(C)C
inactive: dose: 1.87 mg/kg/injection, schedule: Q01DX005 (ip), vehicle: saline 105 % of control | dose: 3.75 mg/kg/injection, schedule: Q01DX005 (ip), vehicle: saline 108 % of control | dose: 7.5 mg/kg/injection, schedule: Q01DX005 (ip), vehicle: saline 112 % of control | dose: 60.0 mg/kg/injection, schedule: Q01DX005 (ip), vehicle: saline 112 % of control

CC12CC(=O)C3C(CCC4CC(OS(=O)(=O)O)CCC43C)C1CC1OC(=O)C=C12 (centres undefined)
inactive: [1] 98 % of control | [2] 100 % of control | [6] 94 % of control

CCCCC(=O)N1C(=O)/C(=C\N(C)C)c2cc(C=O)ccc21
inactive: [9] 90 % of control | [10] 90 % of control | [11] 90 % of control

O=C(Nc1ccc2ccccc2c1)C1C(=O)C(=O)N(c2ccc3ccccc3c2)C1=O (centres undefined)
inactive: [12] 106 % of control | [13] 106 % of control | [14] 108 % of control

O=C1OCc2c[n+]([O-])ccc21
inactive: dose: 20.0 mg/kg/injection, schedule: Q01DX005 (ip), vehicle: Klucel (hydroxypropylcellulose) (HPC) 96 % of control | dose: 40.0 mg/kg/injection, schedule: Q01DX005 (ip), vehicle: Klucel (hydroxypropylcellulose) (HPC) 118 % of control | dose: 80.0 mg/kg/injection, schedule: Q01DX005 (ip), vehicle: Klucel (hydroxypropylcellulose) (HPC) 91 % of control

Cc1ccc(S(=O)(=O)Cl)cc1Cl
inactive: dose: 25.0 mg/kg/injection, schedule: Q01DX009 (ip), vehicle: saline with Tween-80 101 % of control | [9] 102 % of control | [10] 101 % of control

O=S(=O)(CS(=O)(=O)Oc1ccccc1)Oc1ccccc1
inactive: dose: 100.0 mg/kg/injection, schedule: Q04DX002 (ip), vehicle: saline with Tween-80 104 % of control | dose: 200.0 mg/kg/injection, schedule: Q04DX002 (ip), vehicle: saline with Tween-80 96 % of control | dose: 400.0 mg/kg/injection, schedule: Q04DX002 (ip), vehicle: saline with Tween-80 98 % of control

O=C(Nc1ncc([N+](=O)[O-])s1)c1cccnc1
inactive: dose: 3.12 mg/kg/injection, schedule: Q01DX009 (ip), vehicle: suspension in saline 101 % of control | dose: 6.25 mg/kg/injection, schedule: Q01DX009 (ip), vehicle: suspension in saline 87 % of control | dose: 12.5 mg/kg/injection, schedule: Q01DX009 (ip), vehicle: saline 91 % of control | dose: 12.5 mg/kg/injection, schedule: Q01DX009 (ip), vehicle: suspension in saline 87 % of control | [3] 100 % of control | [5] 88 % of control

COC(=O)C(C)n1c(C)csc1=S (centres undefined)
inactive: [7] 103 % of control | [8] 98 % of control

C=C(CCCCOCOCCOC)c1ccccc1
inactive: [15] 106 % of control | [16] 107 % of control | dose: 200.0 mg/kg/injection, schedule: Q01DX005 (ip), vehicle: saline 99 % of control

CCCCOP(=O)(Nc1ccccc1)OCCCC
inactive: [10] 110 % of control | [11] 112 % of control | dose: 400.0 mg/kg/injection, schedule: Q01DX009 (ip), vehicle: saline with Tween-80 110 % of control

CCn1c2ccccc2c2cc(N)c(N=Nc3ccc([N+](=O)[O-])c(OC)c3)cc21
inactive: [12] 104 % of control | [13] 104 % of control | [14] 105 % of control

CCNCC(O)c1cccc(C(F)(F)F)c1 (centres undefined)
inactive: [3] 102 % of control | [4] 109 % of control

CCN(CC)CCOC1CCCCC1
inactive: [15] 105 % of control | [16] 98 % of control
